Data taken from ChEMBL document CHEMBL4390652, “Design, biological evaluation and X-ray crystallography of nanomolar multifunctional ligands targeting simultaneously acetylcholinesterase and glycogen synthase kinase-3” (Eur J Med Chem, 2019).

Experiments:
[1] = target: Non-receptor tyrosine-protein kinase TYK2 (Homo sapiens) (UniProt P29597); assay: Binding affinity to wild-type human partial length TYK2 JH2 pseudokinase domain (G556 to D888 residues) expressed in mammalian expression system assessed as residual binding level at 10 uM by Kinomescan method relative to control
[2] = test system: Mast/stem cell growth factor receptor Kit (Homo sapiens), P10721 [V559D,T670I]; assay: Binding affinity to human partial length KIT V559D/T670I double mutant (Y545 to D952 residues) expressed in bacterial expression system assessed as residual binding level at 10 uM by Kinomescan method relative to control
[3] = target: Atypical kinase COQ8B, mitochondrial (Homo sapiens) (UniProt Q96D53); assay: Binding affinity to wild-type human full length ADCK4 (M1 to S544 residues) expressed in bacterial expression system assessed as residual binding level at 10 uM by Kinomescan method relative to control
Sequence of Atypical kinase COQ8B, mitochondrial (Homo sapiens) (Q96D53 whole entry, the tested form may be a part): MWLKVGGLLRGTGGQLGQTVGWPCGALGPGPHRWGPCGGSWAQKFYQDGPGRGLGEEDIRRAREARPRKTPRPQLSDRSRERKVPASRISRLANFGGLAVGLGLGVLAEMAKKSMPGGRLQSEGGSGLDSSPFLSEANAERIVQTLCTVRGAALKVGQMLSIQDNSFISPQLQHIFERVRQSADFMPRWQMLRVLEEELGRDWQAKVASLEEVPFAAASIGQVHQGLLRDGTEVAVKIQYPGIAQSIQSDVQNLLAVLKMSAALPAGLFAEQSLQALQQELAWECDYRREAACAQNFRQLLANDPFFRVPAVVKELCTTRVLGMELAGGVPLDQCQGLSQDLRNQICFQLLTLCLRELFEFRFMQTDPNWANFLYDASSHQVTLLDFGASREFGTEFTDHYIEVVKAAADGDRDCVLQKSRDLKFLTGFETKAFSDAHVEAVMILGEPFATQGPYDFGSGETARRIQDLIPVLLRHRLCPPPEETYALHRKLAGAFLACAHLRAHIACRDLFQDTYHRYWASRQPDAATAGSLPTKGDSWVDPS

[4] = target: Serine/threonine-protein kinase SIK1 (Homo sapiens) (UniProt P57059); assay: Binding affinity to wild-type human partial length SIK (M1 to Y304 residues) expressed in bacterial expression system assessed as residual binding level at 10 uM by Kinomescan method relative to control
Sequence of Serine/threonine-protein kinase SIK1 (Homo sapiens) (P57059 whole entry, the tested form may be a part): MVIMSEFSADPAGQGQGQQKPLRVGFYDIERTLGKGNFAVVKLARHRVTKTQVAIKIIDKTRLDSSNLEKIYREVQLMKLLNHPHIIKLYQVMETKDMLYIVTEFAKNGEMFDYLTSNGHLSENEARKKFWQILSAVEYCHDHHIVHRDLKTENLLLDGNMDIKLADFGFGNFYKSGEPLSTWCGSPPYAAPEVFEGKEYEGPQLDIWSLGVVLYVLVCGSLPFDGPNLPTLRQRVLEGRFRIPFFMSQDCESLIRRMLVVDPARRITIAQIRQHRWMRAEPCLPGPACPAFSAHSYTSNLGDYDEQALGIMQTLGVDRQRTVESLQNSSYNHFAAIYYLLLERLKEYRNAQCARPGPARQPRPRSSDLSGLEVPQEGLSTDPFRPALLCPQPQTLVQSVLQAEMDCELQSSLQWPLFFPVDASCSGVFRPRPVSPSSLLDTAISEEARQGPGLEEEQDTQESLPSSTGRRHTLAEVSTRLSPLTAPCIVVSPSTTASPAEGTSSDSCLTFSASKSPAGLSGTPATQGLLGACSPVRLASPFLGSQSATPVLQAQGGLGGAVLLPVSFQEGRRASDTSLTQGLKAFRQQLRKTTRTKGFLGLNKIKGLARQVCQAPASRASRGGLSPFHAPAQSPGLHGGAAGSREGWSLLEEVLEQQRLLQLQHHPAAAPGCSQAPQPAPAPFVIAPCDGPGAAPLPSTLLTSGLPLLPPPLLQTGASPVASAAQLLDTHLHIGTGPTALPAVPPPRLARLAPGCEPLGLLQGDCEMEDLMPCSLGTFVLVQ

[5] = test system: Tyrosine-protein kinase ABL1 (Homo sapiens), P00519 [Q252H]; assay: Binding affinity to human non-phosphorylated ABL1 Q252H mutant (S229 to K512 residues) expressed in mammalian expression system assessed as residual binding level at 10 uM by Kinomescan method relative to control
[6] = target: Epidermal growth factor receptor (Homo sapiens) (UniProt P00533); assay: Binding affinity to wild-type human partial length EGFR (R669 to V1011 residues) expressed in bacterial expression system assessed as residual binding level at 10 uM by Kinomescan method relative to control
[7] = target: Cyclin-dependent kinase 3 (Homo sapiens) (UniProt Q00526); assay: Binding affinity to wild-type human full length CDK3 (M1 to H305 residues) expressed in bacterial expression system assessed as residual binding level at 10 uM by Kinomescan method relative to control
Sequence of Cyclin-dependent kinase 3 (Homo sapiens) (Q00526 whole entry, looked up, the tested form may be a part): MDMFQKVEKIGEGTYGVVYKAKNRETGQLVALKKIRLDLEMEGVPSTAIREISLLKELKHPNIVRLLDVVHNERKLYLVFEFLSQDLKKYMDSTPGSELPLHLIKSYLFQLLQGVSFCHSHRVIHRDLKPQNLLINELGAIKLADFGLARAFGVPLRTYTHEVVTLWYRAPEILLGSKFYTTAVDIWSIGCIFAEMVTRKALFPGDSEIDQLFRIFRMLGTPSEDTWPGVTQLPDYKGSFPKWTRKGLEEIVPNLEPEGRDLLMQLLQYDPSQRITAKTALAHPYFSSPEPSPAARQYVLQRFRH

[8] = target: Mitogen-activated protein kinase kinase kinase kinase 4 (Homo sapiens) (UniProt O95819); assay: Binding affinity to wild-type human partial length MAP4K4 (M1 to R310 residues) expressed in bacterial expression system assessed as residual binding level at 10 uM by Kinomescan method relative to control
[9] = target: Epithelial discoidin domain-containing receptor 1 (Homo sapiens) (UniProt Q08345); assay: Binding affinity to wild-type human partial length DDR1 (R565 to V876 residues) expressed in bacterial expression system assessed as residual binding level at 10 uM by Kinomescan method relative to control
[10] = target: SRSF protein kinase 2 (Homo sapiens) (UniProt P78362); assay: Binding affinity to wild-type human full length SRPK2 (M1 to S686 residues) expressed in bacterial expression system assessed as residual binding level at 10 uM by Kinomescan method relative to control
[11] = target: cAMP-dependent protein kinase catalytic subunit PRKX (Homo sapiens) (UniProt P51817); assay: Binding affinity to wild-type human partial length PRKX (M1 to F358 residues) expressed in bacterial expression system assessed as residual binding level at 10 uM by Kinomescan method relative to control
Sequence of cAMP-dependent protein kinase catalytic subunit PRKX (Homo sapiens) (P51817 whole entry, the tested form may be a part): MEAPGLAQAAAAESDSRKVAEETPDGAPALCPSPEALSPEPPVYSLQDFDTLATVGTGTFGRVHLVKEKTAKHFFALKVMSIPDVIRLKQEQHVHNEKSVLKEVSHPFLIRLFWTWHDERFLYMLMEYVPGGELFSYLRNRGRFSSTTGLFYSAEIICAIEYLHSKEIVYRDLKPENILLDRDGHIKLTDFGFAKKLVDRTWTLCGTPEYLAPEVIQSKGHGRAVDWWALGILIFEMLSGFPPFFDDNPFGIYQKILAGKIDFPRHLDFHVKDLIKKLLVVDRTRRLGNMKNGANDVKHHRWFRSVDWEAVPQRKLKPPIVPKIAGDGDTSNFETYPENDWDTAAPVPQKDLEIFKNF

[12] = target: Mitogen-activated protein kinase kinase kinase 11 (Homo sapiens) (UniProt Q16584); assay: Binding affinity to wild-type human partial length MLK3 (I77 to W399 residues) expressed in bacterial expression system assessed as residual binding level at 10 uM by Kinomescan method relative to control
[13] = target: Inhibitor of nuclear factor kappa-B kinase subunit beta (Homo sapiens) (UniProt O14920); assay: Binding affinity to wild-type human full length IKK-beta (M1 to S756 residues) expressed in mammalian expression system assessed as residual binding level at 10 uM by Kinomescan method relative to control
Sequence of Inhibitor of nuclear factor kappa-B kinase subunit beta (Homo sapiens) (O14920 whole entry, the tested form may be a part): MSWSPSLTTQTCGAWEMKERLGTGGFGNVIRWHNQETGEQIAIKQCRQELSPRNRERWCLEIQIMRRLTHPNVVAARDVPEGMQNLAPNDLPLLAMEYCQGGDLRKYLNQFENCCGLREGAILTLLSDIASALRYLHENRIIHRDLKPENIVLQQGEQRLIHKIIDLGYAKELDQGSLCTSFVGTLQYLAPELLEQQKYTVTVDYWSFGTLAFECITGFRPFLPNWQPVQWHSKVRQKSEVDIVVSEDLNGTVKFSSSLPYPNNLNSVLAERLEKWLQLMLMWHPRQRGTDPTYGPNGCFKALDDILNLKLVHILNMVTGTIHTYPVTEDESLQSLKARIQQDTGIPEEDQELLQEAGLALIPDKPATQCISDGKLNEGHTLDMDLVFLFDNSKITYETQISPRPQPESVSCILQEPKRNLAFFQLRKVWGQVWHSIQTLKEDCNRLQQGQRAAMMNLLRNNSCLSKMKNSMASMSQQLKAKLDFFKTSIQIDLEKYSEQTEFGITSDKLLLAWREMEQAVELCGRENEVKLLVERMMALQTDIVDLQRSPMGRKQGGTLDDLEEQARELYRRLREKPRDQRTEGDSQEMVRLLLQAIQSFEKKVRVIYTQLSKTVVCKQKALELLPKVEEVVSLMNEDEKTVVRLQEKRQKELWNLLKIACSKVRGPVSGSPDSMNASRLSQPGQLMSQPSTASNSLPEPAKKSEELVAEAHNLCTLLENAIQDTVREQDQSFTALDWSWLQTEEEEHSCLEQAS

[14] = target: Calcium-dependent protein kinase 1 (Plasmodium falciparum) (UniProt P62344); assay: Binding affinity to wild-type Plasmodium falciparum full length CDPK1 (M1 to S524 residues) expressed in mammalian expression system assessed as residual binding level at 10 uM by Kinomescan method relative to control
Sequence of Calcium-dependent protein kinase 1 (Plasmodium falciparum) (P62344 2-524 limits assumed): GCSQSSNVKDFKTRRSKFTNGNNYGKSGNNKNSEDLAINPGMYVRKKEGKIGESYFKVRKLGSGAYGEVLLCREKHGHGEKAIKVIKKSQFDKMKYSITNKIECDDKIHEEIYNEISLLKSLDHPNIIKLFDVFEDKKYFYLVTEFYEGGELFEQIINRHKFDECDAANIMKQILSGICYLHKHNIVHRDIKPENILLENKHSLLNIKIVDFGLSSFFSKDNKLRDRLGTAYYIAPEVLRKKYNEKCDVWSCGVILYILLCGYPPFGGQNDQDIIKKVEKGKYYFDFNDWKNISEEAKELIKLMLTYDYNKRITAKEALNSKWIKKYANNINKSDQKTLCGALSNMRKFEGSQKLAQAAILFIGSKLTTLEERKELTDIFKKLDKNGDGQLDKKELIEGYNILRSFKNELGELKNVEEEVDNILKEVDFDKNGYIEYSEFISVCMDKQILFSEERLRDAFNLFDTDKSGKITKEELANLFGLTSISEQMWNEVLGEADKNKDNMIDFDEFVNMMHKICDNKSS

[15] = test system: Tyrosine-protein kinase ABL1 (Homo sapiens), P00519 [T315I]; assay: Binding affinity to human phosphorylated ABL1 T315I mutant (S229 to K512 residues) expressed in mammalian expression system assessed as residual binding level at 10 uM by Kinomescan method relative to control
[16] = target: Serine/threonine-protein kinase Nek11 (Homo sapiens) (UniProt Q8NG66); assay: Binding affinity to wild-type human partial length NEK11 (M1 to E313 residues) expressed in mammalian expression system assessed as residual binding level at 10 uM by Kinomescan method relative to control
[17] = target: Serine/threonine-protein kinase Nek6 (Homo sapiens) (UniProt Q9HC98); assay: Binding affinity to wild-type human full length NEK6 (M8 to T313 residues) expressed in bacterial expression system assessed as residual binding level at 10 uM by Kinomescan method relative to control
Sequence of Serine/threonine-protein kinase Nek6 (Homo sapiens) (Q9HC98 whole entry, the tested form may be a part): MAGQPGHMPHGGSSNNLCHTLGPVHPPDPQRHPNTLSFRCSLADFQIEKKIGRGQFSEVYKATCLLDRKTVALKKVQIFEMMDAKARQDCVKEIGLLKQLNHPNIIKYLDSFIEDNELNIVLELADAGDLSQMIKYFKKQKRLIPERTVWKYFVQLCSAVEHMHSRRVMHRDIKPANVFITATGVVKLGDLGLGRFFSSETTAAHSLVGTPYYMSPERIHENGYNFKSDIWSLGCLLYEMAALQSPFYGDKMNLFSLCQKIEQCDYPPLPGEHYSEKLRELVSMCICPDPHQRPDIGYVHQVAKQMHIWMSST

[18] = target: Leukocyte tyrosine kinase receptor (Homo sapiens) (UniProt P29376); assay: Binding affinity to wild-type human partial length LTK (P422 to S744 residues) expressed in bacterial expression system assessed as residual binding level at 10 uM by Kinomescan method relative to control
[19] = target: Serine/threonine-protein kinase 24 (Homo sapiens) (UniProt Q9Y6E0); assay: Binding affinity to wild-type human partial length MST3 (A30 to S311 residues) expressed in bacterial expression system assessed as residual binding level at 10 uM by Kinomescan method relative to control
Sequence of Serine/threonine-protein kinase 24 (Homo sapiens) (Q9Y6E0 whole entry, looked up, the tested form may be a part): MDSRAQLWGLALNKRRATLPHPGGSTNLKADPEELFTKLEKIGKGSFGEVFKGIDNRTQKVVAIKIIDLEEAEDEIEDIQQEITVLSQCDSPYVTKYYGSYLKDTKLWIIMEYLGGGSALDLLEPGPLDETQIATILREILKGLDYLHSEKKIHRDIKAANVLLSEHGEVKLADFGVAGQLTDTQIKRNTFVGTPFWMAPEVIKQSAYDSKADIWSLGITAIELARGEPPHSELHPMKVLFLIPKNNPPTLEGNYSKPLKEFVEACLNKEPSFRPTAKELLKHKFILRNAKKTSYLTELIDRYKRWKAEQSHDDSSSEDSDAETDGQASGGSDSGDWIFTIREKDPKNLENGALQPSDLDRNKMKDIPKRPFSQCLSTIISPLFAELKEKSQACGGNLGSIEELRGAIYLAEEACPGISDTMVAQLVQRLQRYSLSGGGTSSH

[20] = target: Microtubule-associated serine/threonine-protein kinase 1 (Homo sapiens) (UniProt Q9Y2H9); assay: Binding affinity to wild-type human partial length MAST1 (S346 to V730 residues) expressed in mammalian expression system assessed as residual binding level at 10 uM by Kinomescan method relative to control
[21] = test system: Tyrosine-protein kinase ABL1 (Homo sapiens), P00519 [M351T]; assay: Binding affinity to human phosphorylated ABL1 M351T mutant (S229 to K512 residues) expressed in mammalian expression system assessed as residual binding level at 10 uM by Kinomescan method relative to control
[22] = target: Mitogen-activated protein kinase kinase kinase 6 (Homo sapiens) (UniProt O95382); assay: Binding affinity to wild-type human partial length ASK2 (M278 to R972 residues) expressed in mammalian expression system assessed as residual binding level at 10 uM by Kinomescan method relative to control
[23] = target: Calcium/calmodulin-dependent protein kinase type 1 (Homo sapiens) (UniProt Q14012); assay: Binding affinity to wild-type human full length CAMK1 (M1 to L370 residues) expressed in bacterial expression system assessed as residual binding level at 10 uM by Kinomescan method relative to control
Sequence of Calcium/calmodulin-dependent protein kinase type 1 (Homo sapiens) (Q14012 whole entry, looked up, the tested form may be a part): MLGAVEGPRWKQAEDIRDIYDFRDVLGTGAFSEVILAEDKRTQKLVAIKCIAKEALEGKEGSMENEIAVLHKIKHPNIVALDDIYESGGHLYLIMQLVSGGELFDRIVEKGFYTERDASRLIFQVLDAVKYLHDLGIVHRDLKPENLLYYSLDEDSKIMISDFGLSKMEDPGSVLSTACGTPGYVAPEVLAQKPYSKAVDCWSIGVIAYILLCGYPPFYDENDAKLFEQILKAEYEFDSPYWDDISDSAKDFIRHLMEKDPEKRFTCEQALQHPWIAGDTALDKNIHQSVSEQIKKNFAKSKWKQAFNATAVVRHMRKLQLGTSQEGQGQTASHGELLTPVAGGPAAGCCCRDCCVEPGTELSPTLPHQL

[24] = target: Tyrosine-protein kinase TXK (Homo sapiens) (UniProt P42681); assay: Binding affinity to wild-type human partial length TXK (L238 to W527 residues) expressed in bacterial expression system assessed as residual binding level at 10 uM by Kinomescan method relative to control
Sequence of Tyrosine-protein kinase TXK (Homo sapiens) (P42681 whole entry, the tested form may be a part): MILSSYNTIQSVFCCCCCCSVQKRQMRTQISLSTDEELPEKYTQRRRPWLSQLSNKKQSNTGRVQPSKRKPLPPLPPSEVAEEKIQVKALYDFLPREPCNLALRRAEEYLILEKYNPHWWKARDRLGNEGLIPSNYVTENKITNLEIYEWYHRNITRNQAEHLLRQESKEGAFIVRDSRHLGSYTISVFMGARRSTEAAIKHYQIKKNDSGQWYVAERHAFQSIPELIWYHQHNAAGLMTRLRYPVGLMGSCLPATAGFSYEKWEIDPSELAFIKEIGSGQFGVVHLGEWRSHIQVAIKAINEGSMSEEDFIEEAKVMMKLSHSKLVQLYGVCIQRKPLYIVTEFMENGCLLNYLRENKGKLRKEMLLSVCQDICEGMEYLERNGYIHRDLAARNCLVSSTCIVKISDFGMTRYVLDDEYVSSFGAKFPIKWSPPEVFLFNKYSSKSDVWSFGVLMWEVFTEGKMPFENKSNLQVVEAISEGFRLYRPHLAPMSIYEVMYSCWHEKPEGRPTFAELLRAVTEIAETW

O=C(Nc1cc(-c2cn(CCNc3c4c(nc5ccccc35)CCCC4)nn2)ccn1)Nc1cccc2c1C1CCCCN1C2=O (racemic)
Activity [1]: 19%
Activity [2]: 3.4%
Activity [3]: 77%
Activity [4]: 73%
Activity [5]: 4.5%
Activity [6]: 79%
Activity [7]: 90%
Activity [8]: 97%
Activity [9]: 0.3%
Activity [10]: 35%
Activity [11]: 15%
Activity [12]: 58%
Activity [13]: 30%
Activity [14]: 4%
Activity [15]: 2.9%
Activity [16]: 100%
Activity [17]: 28%
Activity [18]: 100%
Activity [19]: 59%
Activity [20]: 100%
Activity [21]: 2.1%
Activity [22]: 87%
Activity [23]: 52%
Activity [24]: 95%
